In patent US20110105599A1, “THERAPEUTIC OR PREVENTIVE AGENTS FOR ISCHEMIC NEUROPATHY” (Dainippon Sumitomo Pharma Co., Ltd., priority 2003, published 2011):
“Also recorded” adds a separate entry of the source.

Columns and labels:
[1] = tested on: increased intra ocular pressure model (retina of SD rats); assay: Pharmacological effect on an increased intra ocular pressure model (retinal layer thickness); assay type: in vivo, rat; conditions: for thickness of outer nuclear layer (ONL), Average / thickness of inner nuclear layer (INL), Average / thickness of inner plexus layer (IPL), Average: 5 μl of 0.1 mg/ml to the vitreous body; for cell death of inner granular cells due to increased intra ocular pressure (in words): overall conclusion of the example; for decrease of the thickness of the inner granular cell layer (INL) due to increased intra ocular pressure (in words) / decrease of the thickness of the inner plexus layer (IPL) due to increased intra ocular pressure (in words): compared to IOP increase load + PBS group, Student's t-test; for influence of administration on the outer nuclear layer (in words): rats with IOP increase load, pre- or post-administration to the vitreous body
Source text: The retinal nerve consists of the extraretinal granular layer, granule cells in the retina and the gangliocyte layer, and granule cells in the retina and the gangliocyte layer receive blood supply from the central retinal artery. When pressure is imposed on the anterior chamber, a load is imposed on the cribrosa lamina which is not covered with the sclera and the central retinal artery which extends through this area is occluded, and as a result, granule cells in the retina and the gangliocyte layer becomes ischemic, and cell death occurs.
The damage of granule cells in the retina can be readily evaluated as “the thickness of the inner nuclear layer (INL)” representing the change in number of the cells. Since the inner plexus layer, synapses between each neurons, is also damaged by the increase in the intra ocular pressure and made thinner, the thickness of the inner plexus layer (IPL) becomes an indicator to show the degree of damage. Therapeutic or preventive agents for retinal neuropathy having a suppressive effect have been explored using these two parameters as indices.
20 SD rats (6-week old) were used and divided into the following groups. • Sham operation (sometimes abbreviated as Sham ope hereinbelow): Five rats (Of these, 4 rats were used for analysis) • IOP (Intra Ocular pressure) treatment+PBS (5 μl was administered to the vitreous body): Five rats (Of these, 4 rats were used for analysis) • IOP (Intra Ocular pressure) treatment+test compound (5 μl was pre-administered to the vitreous body): Five rats (Of these, 4 rats were used for analysis) • IOP (Intra Ocular pressure) treatment+test compound (5 μl was post-administered to the vitreous body): Five rats (Of these, 4 rats were used for analysis) • (2) Increase in Intra Ocular Pressure
By the following steps, increased intra ocular pressure model animals were prepared and a drug (test compound) was administered thereto.
(i) A rat was set to a brain stereotaxic apparatus under anesthesia with […].
(ii) The head of the rat was fixed and an eyeball was pricked with a 26-G needle attached to the tip of a tube, which was connected to a sphygmomanometry device, into the rat anterior chamber and a load was imposed so that the inner pressure of the anterior chamber was 140 to 160 mmHg.
(iii) As for the timing of the administration of a drug into the vitreous body, the drug was administered 15 minutes before the intra ocular pressure increasing load for pre-administration, while the drug was administered 15 minutes after the intra ocular pressure increasing load for post-administration.
(iv) Increase in intra ocular pressure was maintained for one hour, and the rat was relieved from the brain anchor after the intra ocular pressure loading and ordinarily bred for one week.
(v) After sacrificed by suffocation with carbon dioxide, eyeballs were removed.
(vi) A paraffin section of the retina was prepared and dyed with 0.5% cresyl violet.
(vii) A histological image at a position 880 μm from the optic papilla (upper part of the retina) was photographed and the thicknesses of the outer nuclear layer (ONL), inner nuclear layer (INL) and inner plexus layer (IPL) were measured. • (3) Preparation of a Drug and Administration Method
SPF-3059-1 as a test substance was dissolved in PBS to a concentration of 1 mg/ml and further diluted with PBS to 0.1 mg/ml immediately before use. 5 μl of the diluted solution was administered to the vitreous body of the left eye of a rat with a 30G double needle. • (4) Significance Test
Intra ocular pressure was increased by the method of above (2) and significance tests were conducted by Student's t-test and Welch & F-test on the retinal protection effect of SPF-3059-1 administration in rats to which PBS was administered to the vitreous body.
Each of the thickness of outer nuclear layer, inner nuclear layer and inner plexus layer was measured using the retina of the rats in each treatment group, and a cytoprotective effect was evaluated. […]

[2] = tested on: increased intra ocular pressure model (retina of SD rats); assay: as above; assay type: in vivo, rat; conditions: Example 2, 7-week old SD rats, 5 μl of 0.1 mg/ml to the vitreous body
[3] = Solubility (physico-chemical properties of the prepared compound); assay type: physicochemical
Source text: Each compound of the present invention is a known compound and is disclosed by WO02/09756 or WO03/062243 and can be produced from SPF-3059 strain which is a fungus belonging to the genus Penicillium. Production process and physico-chemical properties are described in the above international publication pamphlets. Specifically, the following compounds were respectively prepared. • (Compound SPF-3059-1) • Appearance: Yellow powder • High resolution fast atom bombardment mass spectrum • (HRFAB-MS) m/z (M+H)^+: • Observed value: 579.0772 • Calculated value: 579.0776 • Molecular formula: C28H18O14 • Ultraviolet visible absorption spectrum λ max (in methanol) nm(ε): […]

[4] = tested on: cultured nerve cells; conditions: in a short period of time; as low as; cited from earlier work
[5] = Example 1, 6-week old SD rats, IOP increase load + test substance post-administration, one week after load
[6] = Example 1, 6-week old SD rats, IOP increase load + test substance pre-administration, one week after load
[7] = Example 2, 7-week old SD rats, IOP increase load + test substance post-administration
[8] = IOP increase load + test substance pre-administration

With CC(=O)c1c(C)c(C(=O)C2COc3cc(O)c(O)c(C(=O)O)c3C2=O)cc2c(=O)c3c(C(=O)O)c(O)c(O)cc3oc12 (centres unmarked) [SPF-3059-1] the “thickness of outer nuclear layer (ONL), Average” value (shortened to “thickness of outer nuclear layer”) ([1]; Example 1, 6-week old SD rats, IOP increase load + test substance post-administration (15 minutes after load), one week after load) was 45.56 μm, the “thickness of inner nuclear layer (INL), Average” value (“thickness of inner nuclear layer” below) [1, 5] was 27.89 μm and the “thickness of inner plexus layer (IPL), Average” value (from here on “thickness of inner plexus layer”) [1, 5] was 40.45 μm. The “thickness of outer nuclear layer” value ([1]; Example 1, 6-week old SD rats, IOP increase load + test substance pre-administration (15 minutes before load), one week after load) was 45.79 μm, the “thickness of inner nuclear layer” value [1, 6] was 29.56 μm and the “thickness of inner plexus layer” value [1, 6] was 46.89 μm. The “cell death of inner granular cells due to increased intra ocular pressure (in words)” value [1] was “suppressed”, the “decrease of the thickness of the inner granular cell layer (INL) due to increased intra ocular pressure (in words)” value ([1]; post-administration) was “tends to be suppressed; also recorded: suppressing tendency” and the “decrease of the thickness of the inner plexus layer (IPL) due to increased intra ocular pressure (in words)” value ([1]; post-administration) was “tends to be suppressed; also recorded: suppressing tendency”. The “decrease of the thickness of the inner granular cell layer (INL) due to increased intra ocular pressure (in words)” value ([1]; pre-administration) was “suppressed significantly; also recorded: suppressing effect”, the “decrease of the thickness of the inner plexus layer (IPL) due to increased intra ocular pressure (in words)” value ([1]; pre-administration) was “suppressed significantly; also recorded: suppressing effect” and the “influence of administration on the outer nuclear layer (in words)” value [1] was “does not have an influence”.

In the case of CC(=O)c1cc2c(=O)c3c(C(=O)O)c(O)c(O)cc3oc2c(C(C)=O)c1-c1coc2cc(O)c(O)c(C(=O)O)c2c1=O [SPF-3059-5], the “thickness of inner nuclear layer” value [1, 7] is reported as 36.76 μm, the “thickness of inner plexus layer” value [1, 7] is reported as 55.15 μm and the “cell death of inner granular cells due to increased intra ocular pressure (in words)” value [1] is reported as “suppressed”. For the same molecule, the “decrease of the thickness of the inner granular cell layer (INL) due to increased intra ocular pressure (in words)” value ([1]; post-administration) was “shown statistically significantly”, the “decrease of the thickness of the inner plexus layer (IPL) due to increased intra ocular pressure (in words)” value ([1]; post-administration) was “suppressed significantly” and the “decrease of the thickness of the inner granular cell layer (INL) due to increased intra ocular pressure (in words)” value ([1]; pre-administration) was “tends to be suppressed; also recorded: suppressing tendency”. The “decrease of the thickness of the inner plexus layer (IPL) due to increased intra ocular pressure (in words)” value ([1]; pre-administration) was “suppressed significantly; also recorded: suppressing effect”, the “influence of administration on the outer nuclear layer (in words)” value [1] was “does not have an influence” and the “thickness of outer nuclear layer” value ([2]; IOP increase load + test substance post-administration) was 61.76 μm. For the same molecule, the “thickness of inner nuclear layer” value [2, 8] was 33.09 μm, the “thickness of inner plexus layer” value [2, 8] was 55.88 μm and the “thickness of outer nuclear layer” value [2, 8] was 60.29 μm.

For CC(=O)c1cc2c(=O)c3c(C(=O)O)c(O)c(O)cc3oc2c(C(C)=O)c1-c1coc2cc(O)c(O)cc2c1=O [SPF-3059-24], the Solubility ([3]; in DMSO) was “soluble”, the Solubility ([3]; in hexane) was “Insoluble” and the Solubility ([3]; in methanol) was “soluble”. The Solubility ([3]; in water) was “Insoluble”.

B1: semaphorin 3A: endogenous protein which collapses the nerve growth cone and suppresses axon elongation (protein, UniProt Q14563 21-771, looked up)
Semaphorin-3A: NYQNGKNNVPRLKLSYKEMLESNNVITFNGLANSSSYHTFLLDEERSRLYVGAKDHIFSFDLVNIKDFQKIVWPVSYTRRDECKWAGKDILKECANFIKVLKAYNQTHLYACGTGAFHPICTYIEIGHHPEDNIFKLENSHFENGRGKSPYDPKLLTASLLIDGELYSGTAADFMGRDFAIFRTLGHHHPIRTEQHDSRWLNDPKFISAHLISESDNPEDDKVYFFFRENAIDGEHSGKATHARIGQICKNDFGGHRSLVNKWTTFLKARLICSVPGPNGIDTHFDELQDVFLMNFKDPKNPVVYGVFTTSSNIFKGSAVCMYSMSDVRRVFLGPYAHRDGPNYQWVPYQGRVPYPRPGTCPSKTFGGFDSTKDLPDDVITFARSHPAMYNPVFPMNNRPIVIKTDVNYQFTQIVVDRVDAEDGQYDVMFIGTDVGTVLKVVSIPKETWYDLEEVLLEEMTVFREPTAISAMELSTKQQQLYIGSTAGVAQLPLHRCDIYGKACAECCLARDPYCAWDGSACSRYFPTAKRRTRRQDIRNGDPLTHCSDLHHDNHHGHSPEERIIYGVENSSTFLECSPKSQRALVYWQFQRRNEERKEEIRVDDHIIRTDQGLLLRSLQQKDSGNYLCHAVEHGFIQTLLKVTLEVIDTEHLEELLHKDDDGDGSKTKEMSNSMTPSQKVWYRDFMQLINHPNLNTMDEFCEQVWKRDRKQRRQRPGHTPGNSNKWKHLQENKKGRNRRTHEFERAPRSV
For B1, the “concentration inducing growth cone collapse of the cultured nerve cells” value [4] is listed as 10 pM.
